Experimental data taken from US20260219274A1, “POLYOL SWEETNERS AND CARDIOVASCULAR AND THROMBOTIC EVENT RISK” (THE CLEVELAND CLINIC FOUNDATION, priority 2023, published 2026).

Assays:
[1] = Erythritol intervention study (COSETTE): postprandial plasma erythritol levels; assay type: in vivo, human; conditions: for hours after ingestion of 30 g
Experimental: In a fourth study, the first phase of the Erythritol Intervention Study (COSETTE, clinicaltrials.gov number: NCT04731363), prospectively recruited healthy volunteers ingested a standard-size artificially sweetened beverage (300 mL) containing 30 g of erythritol with instructions to consume the drink within 2 minutes, and blood samples were collected at scheduled post-prandial time points for crythritol measurement. For each participant in the erythritol intervention study (n=8), baseline blood samples were first obtained after overnight (≥8 hours) fasting. […] Therefore, participants were given 30 g erythritol dissolved in 300 mL water. Serial venous blood sampling was performed up to 7d after baseline. […]
Stable-isotope-dilution LC/MS/MS was used for quantification of erythritol, threitol, and 1,5-AHG in human and mouse plasma. […] Limit of detection (LOD) and limit of quantification (LOQ) were as follow: threitol:0.048 and 0.160 μM; erythritol: 0.026 and 0.089 μM; 1,5-AHG: […]; respectively. Three quality control samples were run with each batch of samples and inter-batch variations expressed as coefficient of variation (CV) were less than 7% for all analytes monitored. Data were collected and analyzed by LabSolution 5.91 software (Shimadzu).

[2] = test system: PRP from healthy volunteers; assay: Xylitol dietary challenge: platelet aggregometry before and 30 min after ingestion; assay type: in vivo, human
Experimental: The second part of xylitol ingestion studies focused on platelet phenotypic changes after oral xylitol challenge. In these parallel studies, platelet-rich plasma (PRP) was isolated immediately after the blood draw (from the same subjects that were used for xylitol pharmacokinetics studies) and aggregometry assays performed (as described below) on blood samples collected at baseline and 30 min (when postprandial peak levels were observed) after xylitol exposure.
A non-randomized study design was used wherein each subject served as their own control, comparing both xylitol levels and indices of platelet function within subjects at baseline versus 30 min following ingestion of the standardized drink of xylitol. […]
Platelet rich plasma (PRP) was isolated as previously described.^5 Whole blood was drawn from healthy donors and anticoagulated with sodium citrate (0.109 M). […] Next, platelets were counted with a hemocytometer and the platelet concentration adjusted to 2×10^8/mL using PPP. […] When used, pairs of vehicle vs. xylitol incubated PRP were always incubated and analyzed together (beginning, middle, end of platelet prep use) and after 120 minutes post isolation, PRPs were not used anymore.

Row | SMILES | elevation of plasma erythritol over baseline [1] [fold] | aggregation responses to ADP or TRAP6 after ingestion ([2]; 30 min after 30 g xylitol vs baseline) | platelet responsiveness of individual subjects ([2]; submaximal ADP and TRAP6, after xylitol ingestion, every subject)
1 | OC[C@@H](O)[C@@H](O)CO [erythritol] | 1000 |  | 
2 | OC[C@@H](O)[C@H](O)[C@@H](O)CO [xylitol] |  | substantial (multiple-fold) increase | significant increase
